Reference: patent US20200016200A1, “MODULATING CYTOTOXIC CELL LYTIC GRANULE POSITIONING TO PROMOTE DIFFUSE KILLING IN CELLULAR THERAPIES” (Baylor College of Medicine, priority 2016, published 2020)

Tested on: eNK cells
Experiment: Live cell confocal microscopy (UGATm) of antibody-dependent cellular cytotoxicity
Type: cell-based, human
Details: eNK aggregated with uncoated and RTX-coated Raji cells, no LFA-1 blockade
Method: FIGS. 9A-9D. LFA-1 blockade increases bystander killing. Live cell confocal microscopy of antibody-dependent cellular cytotoxicity by eNK cells pre-treated with murine IgG1 mAb control (9A) or LFA-1 blocking mAb (clone TS1/22, 9B). Green, RTX-coated Raji cells (NK-inciting targets); yellow, uncoated Raji cells (bystanders); red, LysoTracker Red (lytic granules); blue, SYTOX Blue viability dye. NK cells were mixed with the target cells immediately before the imaging process and imaged every 4 min for 4 hours. […] Data represent combined results from three healthy donors. Standard 4-hour 51Cr cytotoxicity assay of NK cells treated with LFA-1-blocking mAb or murine IgG control (9D). Each dot represents an individual healthy donor.
To apply this concept in the context of physiologic antibody-dependent cell mediated cytotoxicity (ADCC) a human therapeutic monoclonal antibody, Rituximab (RTX) was used along with NK cell resistant Raji cells that naturally express the antigen recognized by RTX. […]
YTS-CD16 and eNK cells were incubated with 5 μM LysoTracker Red DND-99 (Thermo Fisher) for 30 min at 37° C. and washed. […] Emission was detected with HyD detectors, and images were collected in a single z-plane at one frame every 4 or 30 min for 120 min. […]

In the case of “Rituximab: human therapeutic monoclonal antibody against CD20, used to coat Raji cells for ADCC”, the “killing of RTX-coated versus uncoated Raji cells” value is reported as “preferential killing of the RTX-coated Raji cells”.
